Reference: patent EP0158545A1, “[Alpha-(alkylaminomethyl)-benzylthio]-acetic-acid derivatives, process for their preparation and their therapeutic use” (priority 1984, dated 1985)

How the values were obtained:
rat [1] = assay: Global behaviour and reactivities, rat; type: in vivo; details: I.P.
Method: (§1) On a résumé ci-après les résultats des essais neuropsychopharmacologiques qui ont été entrepris avec les produits préférés selon l'invention, le CRL 41 190 (Ex 1) et le CRL 41 214 (Ex 3). Dans ce résumé, les deux produits à tester mis en solution dans de l'eau distillée ont été administrés, sauf indiction contraire, par voie intrapéritonéale sous un volume de 20 ml/kg chez la souris mâle et sous un volume de 5 ml/kg chez le rat mâle. […]
(§2) Des lots de trois animaux sont observés avant puis 0,25 h, 0,5, h, 1 h, 2 h, 3 h et 24 h après administration de CRL 41 190.

souris mâle = details: in vivo
Method: as §1
La DL-0 (dose maximale non mortelle) du CRL 41 190 est supérieure à 128 mg/kg par voie I.P. chez la souris mâle, et la DL-30 est de l'ordre de 256 mg/kg.
Par voie I.P. chez la souris mâle, la DL-0 est supérieure à 256 mg/kg.

rats = assay: Interaction with amphetamine (stereotypies), rat; type: in vivo; details: amphétamine 2 mg/kg I.P., doses de 4 mg/kg, 16 mg/kg et surtout 64 mg/kg
Method: L'amphétamine (2 mg/kg) est injectée par voie intrapéritonéale à des lots de 6 rats, une demi -heure après l'administration de CRL 41 190.

souris [2] = assay: Global behaviour and reactivities, mouse; type: in vivo; details: I.P.
Method: as §1, §2

souris [3] = assay: Four-plate test, traction and electroshock, mouse; type: in vivo
Method: Le test est pratiqué sur des lots de 10 souris 0,50 h après l'administration du produit à étudier.

souris [4] = details: I.P., plus forte dose utilisée (128 mg/kg)
souris [5] = assay: Spontaneous motility (actimeter), mouse; type: in vivo; details: souris, I.P.; plus forte dose utilisée (128 mg/gk)
souris [6] = assay: Intergroup aggressiveness, mouse; type: in vivo; details: I.P., aux doses utilisées
Method: Après avoir séjourné pendant 3 semaines dans chacune des moitiés d'une cage séparées par une cloison opaque, des groupes de 3 souris reçoivent le CRL 41 190. Une demi-heure plus tard, les deux groupes d'une même cage sont réunis par retrait de la cloison et on note le nombre de combats qui surviennent en 10 minutes.

souris [7] = assay: Motility reduced by habituation to the enclosure, mouse; type: in vivo; details: I.P., plus forte dose utilisée (128 mg/kg)
souris [8] = assay: Interaction with reserpine (hypothermia, ptosis), mouse; type: in vivo; details: réserpine 2,5 mg/kg I.P.
Method: Quatre heures après l'injection intrapéritonéale de 2,5 mg/kg de réserpine, des lots de 12 souris reçoivent le CRL 41 190. On étudie l'influence du produit à tester sur l'hypothermie et le ptôsis réserpiniques.

souris [9] = assay: Behavioural despair (forced immersion), mouse; type: in vivo; details: I.P., doses de 32 et 128 mg/kg
Description: On note la durée totale d'immobilité entre la 2ème et la 6ème minutes suivant l'immersion.

souris [10] = assay: Asphyxic anoxia (gallamine triethiodide), mouse; type: in vivo; details: product I.P. half an hour before triiodoéthylate de gallamine 32 mg/kg I.P.
souris [11] = assay: Interaction with apomorphine, mouse; type: in vivo
Method: • 1°) chez la souris • Des lots de 6 souris reçoivent le produit à étudier 0,50 h avant une injection sous-cutanée de 1 mg/kg ou 16 mg/kg d'apomorphine.

rat [12] = assay: Interaction with apomorphine, rat; type: in vivo; details: product I.P. 0,50 h before s.c. 0,5 mg/kg apomorphine
souris [13] = assay: Interaction with barbital (sleep duration), mouse; type: in vivo; details: barbital 220 mg/kg I.P., plus forte dose utilisée (128 mg/kg)
souris [14] = assay: Interaction with oxotremorine, mouse; type: in vivo; details: oxotrémorine 0,5 mg/kg I.P.
l'homme = assay: Clinical treatment of depression, oral administration; type: in vivo
[15] = souris, 0,50 h after I.P. administration
[16] = dès la dose de 8 mg/kg, mais surtout aux doses de 32 mg/kg et 128 mg/kg

For `CC(C)(C)NCC(SCC(=O)NO)c1ccccc1` (racemic) [CRL 41 214, chlorhydratede l'acide [α-(tertiobutyl-aminométhyl)-benzyl]-thioacétohydroxamique], the “comportement global et réactivités” value (rat [1]; dose de 16 mg/kg) was “une mydriase d'une durée de 2 h qui est maximale 0,5 h après administration”, the “comportement global et réactivités” value (rat [1]; dose de 64 mg/kg) was “une diminution de la fréquence respiratoire pendant 0,5 h et une mydriase d'une durée de 3 h qui est maximale 1 h après administration” and the “comportement global et réactivités” value (rat [1]; doses de 1 et 4 mg/kg) was “aucune modification nette du comportement, des réactivités, de la température rectale et du diamètre pupillaire par rapport au lot témoin”. For the same compound, the “signs observed at high doses” value (souris mâle) was “une sédation et une dyspnée”, the “DL-0 (dose maximale non mortelle)” value (souris mâle; mouse, ip) was > 256 mg/kg and the “stéréotypies amphétaminiques” value (rats) was “potentialise nettement les stéréotypies amphétaminiques”. The “comportement global et réactivités” value (souris [2]; dose de 128 mg/kg) was “une mydriase modérée”, the “comportement global et réactivités” value (souris [2]; doses de 2 à 32 mg/kg) was “aucune modification nette du comportement et des réactivités” and the “effets convulsivants de l'électrochoc” value (souris [3]; [15]) was “ne modifie pratiquement pas les effets convulsivants”. For the same compound, the “incapacité motrice (traction)” value (souris [3]; [15]) was “ne provoque pas d'incapacité motrice majeure”, the “nombre de passages punis (test des quatre plaques)” value (souris [3]; [15]) was “n'entraîne pas d'augmentation nette du nombre de passages punis” and the “effets létaux de l'électrochoc” value (souris [3]; souris, I.P., dose de 128 mg/kg) was “aggrave, à la dose de 128 mg/kg, les effets létaux de l'électrochoc”. For the same compound, the “récupération motrice après anoxie hypobare aigue” value (souris [4]) was “semble entraîner une amélioration très modérée de la récupération motrice”, the “activité motrice spontanée” value (souris [5]) was “augmente nettement l'activité motrice spontanée de la souris” and the nombre de combats (souris [6]) was “ne modifie pratiquement pas le nombre de combats”. The “reprise d'activité motrice chez la souris habituée à son enceinte” value (souris [7]) was “entraîne une reprise nette d'activité motrice chez la souris habituée à son enceinte”, the “ptôsis réserpinique” value (souris [8]; doses 8 to 128 mg/kg) was “sans modifier le ptôsis” and the “hypothermie réserpinique” value (souris [8]; [16]) was “antagonise l'hypothermie réserpinique”. For the same compound, the “durée de l'immobilité de la souris placée en immersion forcée” value (souris [9]) was “diminue très modérément la durée de l'immobilité de la souris placée en immersion forcée”, the “délai d'apparition des convulsions et de la mort consécutives à une anoxie asphyxique” value (souris [10]) was “diminue très modérément le délai d'apparition des convulsions et de la mort” and the “hypothermie induite par l'apomorphine” value (souris [11]; I.P., dès la dose de 2 mg/kg, mais surtout aux doses de 32 mg/kg à 128 mg/kg) was “antagonise l'hypothermie induite par l'apomorphine”. The “comportements de verticalisation et stéréotypies (apomorphine)” value (souris [11]; product I.P. 0,50 h before s.c. apomorphine) was “ne sont pratiquement pas modifiés”, the “stéréotypies induites par l'apomorphine” value (rat [12]) was “laisse inchangées les stéréotypies induites par l'apomorphine” and the “durée du sommeil barbiturique” value (souris [13]) was “diminue nettement la durée du sommeil barbiturique”. For the same compound, the “signes de stimulation cholinergique périphérique dûs à l'oxotrémorine” value (souris [14]; all doses used) was “ne modifie pratiquement pas les signes de stimulation cholinergique périphérique dûs à l'oxotrémorine”, the “intensité des tremblements dus à l'oxotrémorine” value (souris [14]; doses de 32 mg/kg et 128 mg/kg) was “diminue faiblement l'intensité des tremblements dus à l'oxotrémorine” and the “hypothermie induite par l'oxotrémorine” value (souris [14]; [16]) was “s'oppose à l'hypothermie induite par l'oxotrémorine”. The “traitement des dépressions chez l'homme” value (l'homme; administration orale, gélules ou comprimés 25 mg ou 50 mg, 1 à 2 prises par jour, deux à trois semaines) was “bons résultats” and the “propriétés antidépressives chez les personnes agées” value (l'homme; clinical, oral) was “se manifestaient de façon très bénéfique chez les personnes agées”.
